Patent USRE48335E1, “Polymyxin derivatives as antimicrobial compounds” (priority 2014, dated 2020)
≈ marks a conversion by molar mass, not a printed value. Positions of bridges follow the written chain, without caps; N, C: chain ends. Non-standard residues stand in square brackets, D forms with d. Residues, ends and D or L forms follow the SMILES beside them. *: point of attachment. Benzoyl(4-CF3) = O=C(c1ccc(C(F)(F)F)cc1)*; X7 = O=C(c1cc(F)cc(C(F)(F)F)c1)*; X8 = O=C(c1ccc(C(F)(F)F)cc1Cl)*; X6 = O=C(c1ccc(F)c(Cl)c1)*; Nonanoyl = CCCCCCCCC(=O)*; Heptanoyl = CCCCCCC(=O)*; Octanoyl = CCCCCCCC(=O)*; X5 = Cc1cc(C(=O)*)ccc1Cl; Dab = NCC[C@H](N)C(=O)O; Abu = CC[C@H](N)C(=O)O; Dap = NC[C@H](N)C(=O)O

What was measured:
Pseudomonas aeruginosa = system: Pseudomonas aeruginosa
In short: (§1)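 Minimum inhibitory concentrations come from CLSI-standard broth microdilution in cation-adjusted Mueller-Hinton broth.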

Acinetobacter baumannii = system: Acinetobacter baumannii
In short: as §1

Klebsiella pneumoniae = system: Klebsiella pneumoniae
In short: as §1

Enterobacter cloacae = system: Enterobacter cloacae
In short: as §1

[1] = system: K. pneumoniae FADDI-KP032; assay: In vivo efficacy in mouse blood infection model (neutropenic Swiss mice); conditions: compound, free base 4 mg/kg intravenously 2 h after inoculation, blood at 4 h
In short: (§2)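 Neutropenic Swiss mice (cyclophosphamide 150 mg/kg day −4, 100 mg/kg day −1, i.p.) infected i.v. with early log-phase bacteria; 4 mg/kg free base i.v. given 2 h post-inoculation. Blood CFU by cardiac puncture 4 h post-dose; Δlog10 CFU/mL treated versus saline controls.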

P. aeruginosa ATCC 27853 = assay: as above; conditions: compound, free base 4 mg/kg intravenously 2 h after inoculation, blood at 4 h
In short: as §2

A. baumannii ATCC 19606 = assay: as above; conditions: compound, free base 4 mg/kg intravenously 2 h after inoculation, blood at 4 h
In short: as §2

SMILES	MIC (Pseudomonas aeruginosa) [µg/mL]	Minimum inhibitory concentration, Pa ATCC 27853 (Pseudomonas aeruginosa) [µg/mL]	Minimum inhibitory concentration, Pa FADDI-PA022 (Pseudomonas aeruginosa) [µg/mL]	Minimum inhibitory concentration, Pa FADDI-PA025 (Pseudomonas aeruginosa) [µg/mL]	MIC (Acinetobacter baumannii) [µg/mL]	Minimum inhibitory concentration, Ab A ATCC 17978 (Acinetobacter baumannii) [µg/mL]	Minimum inhibitory concentration, Ab ATCC 19606 (Acinetobacter baumannii) [µg/mL]	Minimum inhibitory concentration, Ab FADDI-AB034 (Acinetobacter baumannii) [µg/mL]	MIC (Klebsiella pneumoniae) [µg/mL]	Minimum inhibitory concentration, Ec FADDI-EC001 (Enterobacter cloacae) [µg/mL]	Minimum inhibitory concentration, Ec FADDI-EC003 (Enterobacter cloacae) [µg/mL]	Minimum inhibitory concentration, Ec FADDI-EC006 (Enterobacter cloacae) [µg/mL]	Δ log (Treated-Control at 4 h) [1] [log10 CFU/mL]	Δ log (Treated-Control at 4 h) (P. aeruginosa ATCC 27853) [log10 CFU/mL]	Δ log (Treated-Control at 4 h) (A. baumannii ATCC 19606) [log10 CFU/mL]
CC[C@@H]1NC(=O)[C@@H](CC(C)C)NC(=O)[C@H](CCN)NC(=O)[C@@H](NC(=O)[C@H](CN)NC(=O)[C@@H](NC(=O)[C@H](CCN)NC(=O)c2ccc(C(F)(F)F)cc2)[C@@H](C)O)CCNC(=O)[C@H]([C@@H](C)O)NC(=O)[C@H](CCN)NC(=O)[C@H](CCN)NC1=O [Compound 74] ({Benzoyl(4-CF3)}-[Dab]T[Dap][Dab][Dab][dL][Abu][Dab][Dab]T; lactam 4-C)	0.5 (≈ 0.431 µM)	0.5 (≈ 0.431 µM)	0.5 (≈ 0.431 µM)	2 (≈ 1.73 µM)	0.5 (≈ 0.431 µM)	0.5 (≈ 0.431 µM)	0.5 (≈ 0.431 µM)	1 (≈ 0.863 µM)	0.25 (≈ 0.216 µM)	<0.125	0.25 (≈ 0.216 µM)	2 (≈ 1.73 µM)	−2.94	−3.10	−2.34
CC[C@@H]1NC(=O)[C@@H](CC(C)C)NC(=O)[C@H](CCN)NC(=O)[C@@H](NC(=O)[C@H](CN)NC(=O)[C@@H](NC(=O)[C@H](CCN)NC(=O)c2ccc(Cl)c(C)c2)[C@@H](C)O)CCNC(=O)[C@H]([C@@H](C)O)NC(=O)[C@H](CCN)NC(=O)[C@H](CCN)NC1=O [Compound 104] (X5-[Dab]T[Dap][Dab][Dab][dL][Abu][Dab][Dab]T; lactam 4-C)	0.5 (≈ 0.439 µM)	0.5 (≈ 0.439 µM)	0.5 (≈ 0.439 µM)	2 (≈ 1.75 µM)	1 (≈ 0.877 µM)	0.5 (≈ 0.439 µM)	1 (≈ 0.877 µM)	0.25 (≈ 0.219 µM)	1 (≈ 0.877 µM)	0.5 (≈ 0.439 µM)	0.25 (≈ 0.219 µM)	0.5 (≈ 0.439 µM)	−3.23	−3.08	−1.35
CC[C@@H]1NC(=O)[C@@H](CC(C)C)NC(=O)[C@H](CCN)NC(=O)[C@@H](NC(=O)[C@H](CN)NC(=O)[C@@H](NC(=O)[C@H](CCN)NC(=O)c2cc(F)cc(C(F)(F)F)c2)[C@@H](C)O)CCNC(=O)[C@H]([C@@H](C)O)NC(=O)[C@H](CCN)NC(=O)[C@H](CCN)NC1=O [Compound 108] (X7-[Dab]T[Dap][Dab][Dab][dL][Abu][Dab][Dab]T; lactam 4-C)	0.5 (≈ 0.425 µM)	0.5 (≈ 0.425 µM)	0.5 (≈ 0.425 µM)	2 (≈ 1.7 µM)	0.5 (≈ 0.425 µM)	0.5 (≈ 0.425 µM)	0.5 (≈ 0.425 µM)	0.5 (≈ 0.425 µM)	0.25 (≈ 0.212 µM)	1 (≈ 0.849 µM)	0.5 (≈ 0.425 µM)	0.5 (≈ 0.425 µM)	−2.84	−2.32	−1.82
CC[C@@H]1NC(=O)[C@@H](CC(C)C)NC(=O)[C@H](CCN)NC(=O)[C@@H](NC(=O)[C@H](CN)NC(=O)[C@@H](NC(=O)[C@H](CCN)NC(=O)c2ccc(C(F)(F)F)cc2Cl)[C@@H](C)O)CCNC(=O)[C@H]([C@@H](C)O)NC(=O)[C@H](CCN)NC(=O)[C@H](CCN)NC1=O [Compound 109] (X8-[Dab]T[Dap][Dab][Dab][dL][Abu][Dab][Dab]T; lactam 4-C)	0.5 (≈ 0.419 µM)	0.5 (≈ 0.419 µM)	0.5 (≈ 0.419 µM)	2 (≈ 1.68 µM)	0.25 (≈ 0.209 µM)	1 (≈ 0.838 µM)	0.25 (≈ 0.209 µM)	1 (≈ 0.838 µM)	0.25 (≈ 0.209 µM)	1 (≈ 0.838 µM)	<0.125	0.25 (≈ 0.209 µM)	−3.47	−2.68	−1.54
CC[C@@H]1NC(=O)[C@@H](CC(C)C)NC(=O)[C@H](CCN)NC(=O)[C@@H](NC(=O)[C@H](CN)NC(=O)[C@@H](NC(=O)[C@H](CCN)NC(=O)c2ccc(F)c(Cl)c2)[C@@H](C)O)CCNC(=O)[C@H]([C@@H](C)O)NC(=O)[C@H](CCN)NC(=O)[C@H](CCN)NC1=O [Compound 110] (X6-[Dab]T[Dap][Dab][Dab][dL][Abu][Dab][Dab]T; lactam 4-C)	0.5 (≈ 0.437 µM)	0.5 (≈ 0.437 µM)	0.5 (≈ 0.437 µM)	1 (≈ 0.874 µM)	2 (≈ 1.75 µM)	0.5 (≈ 0.437 µM)	2 (≈ 1.75 µM)	0.5 (≈ 0.437 µM)	0.25 (≈ 0.219 µM)	1 (≈ 0.874 µM)	1 (≈ 0.874 µM)	0.5 (≈ 0.437 µM)	−2.50	−3.30	−1.57
CCCCCCCC(=O)N[C@@H](CCN)C(=O)N[C@H](C(=O)N[C@@H](CN)C(=O)N[C@H]1CCNC(=O)[C@H]([C@@H](C)O)NC(=O)[C@H](CCN)NC(=O)[C@H](CCN)NC(=O)[C@H]([C@@H](C)O)NC(=O)[C@@H](Cc2ccccc2)NC(=O)[C@H](CCN)NC1=O)[C@@H](C)O [Compound 129] (Octanoyl-[Dab]T[Dap][Dab][Dab][dF]T[Dab][Dab]T; lactam 4-C)	0.5 (≈ 0.43 µM)	0.5 (≈ 0.43 µM)	1 (≈ 0.86 µM)	2 (≈ 1.72 µM)	0.5 (≈ 0.43 µM)	0.25 (≈ 0.215 µM)	0.5 (≈ 0.43 µM)	0.25 (≈ 0.215 µM)	<0.125	0.5 (≈ 0.43 µM)	<0.125	0.5 (≈ 0.43 µM)	−3.64	−3.45	−1.42
CCCCCCC(=O)N[C@@H](CCN)C(=O)N[C@H](C(=O)N[C@@H](CN)C(=O)N[C@H]1CCNC(=O)[C@H]([C@@H](C)O)NC(=O)[C@H](CCN)NC(=O)[C@H](CCN)NC(=O)[C@H](CC)NC(=O)[C@@H](Cc2ccccc2)NC(=O)[C@H](CCN)NC1=O)[C@@H](C)O [Compound 131] (Heptanoyl-[Dab]T[Dap][Dab][Dab][dF][Abu][Dab][Dab]T; lactam 4-C)	0.5 (≈ 0.441 µM)	0.5 (≈ 0.441 µM)	2 (≈ 1.76 µM)	4 (≈ 3.53 µM)	0.25 (≈ 0.221 µM)	0.25 (≈ 0.221 µM)	0.25 (≈ 0.221 µM)	0.25 (≈ 0.221 µM)	<0.125	<0.125	<0.125	<0.125	−3.44	−3.80	−1.75
CCCCCCCCC(=O)N[C@@H](CCN)C(=O)N[C@H](C(=O)N[C@@H](CN)C(=O)N[C@H]1CCNC(=O)[C@H]([C@@H](C)O)NC(=O)[C@H](CCN)NC(=O)[C@H](CCN)NC(=O)[C@H](C)NC(=O)[C@@H](CC(C)C)NC(=O)[C@H](CCN)NC1=O)[C@@H](C)O [Compound 132] (Nonanoyl-[Dab]T[Dap][Dab][Dab][dL]A[Dab][Dab]T; lactam 4-C)	0.5 (≈ 0.449 µM)	0.5 (≈ 0.449 µM)	1 (≈ 0.898 µM)	4 (≈ 3.59 µM)	0.5 (≈ 0.449 µM)	0.5 (≈ 0.449 µM)	0.5 (≈ 0.449 µM)	0.25 (≈ 0.225 µM)	0.25 (≈ 0.225 µM)	0.25 (≈ 0.225 µM)	<0.125	<0.125	−3.16	−4.39	−1.58
